In paper PMC4433859 (Journal of immunology (Baltimore, Md. : 1950), 2015):
Where no end group is shown, it is not given here.

Key:
HLA-B*42:01 = HLA-B*42:01 (Homo sapiens, UniProt P01889, D138N/E176V/E187T/K202T/R180D); experiment: biochemical; type: binding
[1] = tested on: HIV-specific CD8^+ T-cell responses; experiment: IFNγ ELISpot with overlapping and optimal peptides; type: cell-based, human; conditions: IFNγ ELISpot responders among HLA-B*42:01^+ individuals, stratified for lack of HLA-B*07:02/39:10/42:02/81:01 co-expression (n=154)

**Q.** How did the Kd (HLA-B*42:01) turn out when IIKDYGKQM [Int-IM9] was run?
**A.** 19 nM

**Q.** With KVVPRRKAKIIKDYGKQM [Int-275] as the sequence, how does the targeting frequency [1] read?
**A.** 53%
